Data reported in patent US10758534B2 (Vertex Pharmaceuticals Incorporated, priority 2014, dated 2020).

Molecular target: T1, F508del (Homo sapiens, UniProt P13569, DEL508-508)
T1 construct: expressed in transfected cells
Test: Protocol 2: FRET membrane potential optical assay (VIPR), identification of correction compounds
Type: cell-based
Conditions: F508del CFTR modulator activity; compounds of Table 1; read-out: EC30
Procedure, shortened: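 Correction of the F508del trafficking defect is scored as forskolin (10 μM)/genistein (20 μM)-stimulated Cl^− efflux in NIH3T3 mouse fibroblasts after a 16 hr, 37° C. compound exposure. Depolarization was followed optically using voltage-sensing FRET dyes.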

T1 sequence (P13569 with tags, fused parts or gaps DEL508-508): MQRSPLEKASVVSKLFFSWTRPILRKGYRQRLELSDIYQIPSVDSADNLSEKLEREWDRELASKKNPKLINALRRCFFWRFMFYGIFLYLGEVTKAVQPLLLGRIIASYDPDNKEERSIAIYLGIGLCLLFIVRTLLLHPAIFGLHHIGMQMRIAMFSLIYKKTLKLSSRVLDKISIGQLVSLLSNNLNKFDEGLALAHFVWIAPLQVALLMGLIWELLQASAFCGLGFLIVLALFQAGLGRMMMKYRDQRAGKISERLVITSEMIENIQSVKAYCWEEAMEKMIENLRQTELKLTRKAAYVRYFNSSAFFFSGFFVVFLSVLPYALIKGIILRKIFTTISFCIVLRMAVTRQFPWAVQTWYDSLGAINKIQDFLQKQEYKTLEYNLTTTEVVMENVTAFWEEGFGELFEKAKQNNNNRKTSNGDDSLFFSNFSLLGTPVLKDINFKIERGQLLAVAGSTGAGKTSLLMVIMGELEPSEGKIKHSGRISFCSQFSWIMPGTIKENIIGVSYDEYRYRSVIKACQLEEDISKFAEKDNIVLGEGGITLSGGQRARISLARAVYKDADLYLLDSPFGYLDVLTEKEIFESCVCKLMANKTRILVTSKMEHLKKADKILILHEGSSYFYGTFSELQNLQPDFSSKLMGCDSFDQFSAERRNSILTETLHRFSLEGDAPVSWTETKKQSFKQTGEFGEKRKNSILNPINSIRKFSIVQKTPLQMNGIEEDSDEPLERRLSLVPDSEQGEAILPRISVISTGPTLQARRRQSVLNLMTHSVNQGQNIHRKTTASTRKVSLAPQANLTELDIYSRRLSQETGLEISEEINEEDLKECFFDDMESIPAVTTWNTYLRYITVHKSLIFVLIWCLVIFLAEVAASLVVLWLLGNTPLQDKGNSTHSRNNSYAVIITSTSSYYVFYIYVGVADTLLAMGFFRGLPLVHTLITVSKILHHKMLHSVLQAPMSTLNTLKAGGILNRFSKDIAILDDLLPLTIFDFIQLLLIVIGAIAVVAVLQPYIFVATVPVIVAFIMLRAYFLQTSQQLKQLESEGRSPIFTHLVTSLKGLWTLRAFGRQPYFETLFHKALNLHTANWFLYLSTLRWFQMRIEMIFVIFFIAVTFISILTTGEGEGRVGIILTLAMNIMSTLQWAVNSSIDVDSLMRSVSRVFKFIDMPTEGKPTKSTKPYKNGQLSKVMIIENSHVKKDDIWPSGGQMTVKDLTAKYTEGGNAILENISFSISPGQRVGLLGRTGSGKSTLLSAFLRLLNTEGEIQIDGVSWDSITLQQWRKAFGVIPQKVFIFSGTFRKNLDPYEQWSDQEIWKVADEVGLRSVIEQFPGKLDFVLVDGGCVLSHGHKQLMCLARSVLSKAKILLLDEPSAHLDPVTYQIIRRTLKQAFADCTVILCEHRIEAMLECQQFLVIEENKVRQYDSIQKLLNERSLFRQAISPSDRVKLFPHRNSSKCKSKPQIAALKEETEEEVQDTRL

CCOC(=O)c1ccc(Nc2cccc(S(=O)(=O)NC(=O)c3cccnc3N3CC(C)CC3(C)C)n2)cc1 (centres unmarked) [Compound 2122, ethyl 4-[[6-[[2-(2,2,4-trimethylpyrrolidin-1-yl)pyridine-3-carbonyl]sulfamoyl]-2-pyridyl]amino]benzoate] was tested. Which EC30 did it give?
The EC30 was under 3 µM.

How did the EC30 turn out when CCCCOCCCNc1cccc(S(=O)(=O)NC(=O)c2cccnc2N2CC(C)CC2(C)C)n1 (centres unmarked) [Compound 2529, N—[[6-(3-butoxypropylamino)-2-pyridyl]sulfonyl]-2-(2,2,4-trimethylpyrrolidin-1-yl)pyridine-3-carboxamide] was run?
Its EC30 is under 3 µM.

With C[C@@H]1CN(c2nc(-c3ccc(F)cc3O)ccc2C(=O)NS(=O)(=O)c2cccnc2N)C(C)(C)C1 [Compound 2653, N-[(2-amino-3-pyridyl)sulfonyl]-6-(4-fluoro-2-hydroxy-phenyl)-2-[(4S)-2,2,4-trimethylpyrrolidin-1-yl]pyridine-3-carboxamide] as the compound, how does the EC30 read?
Its EC30 is under 3 µM.

With COc1cc(OC)cc(Oc2cccc(S(=O)(=O)NC(=O)c3cccnc3N3CC(C)CC3(C)C)n2)c1 (centres unmarked) [Compound 2293, N—[[6-(3,5-dimethoxyphenoxy)-2-pyridyl]sulfonyl]-2-(2,2,4-trimethylpyrrolidin-1-yl)pyridine-3-carboxamide] as the compound, how does the EC30 read?
The EC30 was under 3 µM.

With CC1CN(c2ncccc2C(=O)NS(=O)(=O)c2cccc(Oc3c(F)cc(F)cc3F)n2)C(C)(C)C1 (centres unmarked) [Compound 2654, N—[[6-(2,4,6-trifluorophenoxy)-2-pyridyl]sulfonyl]-2-(2,2,4-trimethylpyrrolidin-1-yl)pyridine-3-carboxamide] as the compound, how does the EC30 read?
Its EC30 is under 3 µM.

How did the EC30 turn out when CC1CN(c2ncccc2C(=O)NS(=O)(=O)c2cccc(Oc3cccc(Cl)c3Cl)n2)C(C)(C)C1 (centres unmarked) [Compound 2720] was run?
The EC30 was under 3 µM.

For COc1ccc(-c2ccc(C(=O)NS(=O)(=O)c3cccnc3N)c(N3C[C@@H](C)CC3(C)C)n2)c(C)c1 [Compound 2494, N-[(2-amino-3-pyridyl)sulfonyl]-6-(4-methoxy-2-methyl-phenyl)-2-[(4S)-2,2,4-trimethylpyrrolidin-1-yl]pyridine-3-carboxamide], which EC30 is on record?
Its EC30 is under 3 µM.

With CC1CN(c2ncccc2C(=O)NS(=O)(=O)c2cccc(OC3CCC[C@@H]3C)n2)C(C)(C)C1 (stereo in doubt) [Compound 2109, N—[[6-[(1S,2S)-2-methylcyclopentoxy]-2-pyridyl]sulfonyl]-2-(2,2,4-trimethylpyrrolidin-1-yl)pyridine-3-carboxamide] as the compound, how does the EC30 read?
Its EC30 is under 3 µM.

With CCN(CC)c1cc(C)cc(-c2ccc(C(=O)NS(=O)(=O)c3cccc(N)n3)c(N3C[C@@H](C)CC3(C)C)n2)n1 [Compound 2002, N-[(6-amino-2-pyridyl)sulfonyl]-6-[6-(diethylamino)-4-methyl-2-pyridyl]-2-[(4S)-2,2,4-trimethylpyrrolidin-1-yl]pyridine-3-carboxamide] as the compound, how does the EC30 read?
The EC30 was under 3 µM.

For COc1cc(C)c(-c2ccc(C(=O)NS(=O)(=O)c3ccc[nH]c3=O)c(N3C[C@@H](C)CC3(C)C)n2)c(C)c1 [Compound 2575, 6-(4-methoxy-2,6-dimethyl-phenyl)-N-[(2-oxo-1H-pyridin-3-yl)sulfonyl]-2-[(4S)-2,2,4-trimethylpyrrolidin-1-yl]pyridine-3-carboxamide], which EC30 is on record?
Its EC30 is under 3 µM.

With C[C@@H]1CN(c2nc(C3=CCCN(C(=O)CC(C)(C)C)C3)ccc2C(=O)NS(=O)(=O)c2cccc(N)n2)C(C)(C)C1 [Compound 2650, N-[(6-amino-2-pyridyl)sulfonyl]-6-[1-(3,3-dimethylbutanoyl)-3,6-dihydro-2H-pyridin-5-yl]-2-[(4S)-2,2,4-trimethylpyrrolidin-1-yl]pyridine-3-carboxamide] as the compound, how does the EC30 read?
Its EC30 is 3 to 10 µM.

Same assay, conditions: Table 3; compounds of Table 1 as modulators of CFTR activity; protocol not stated

How did the EC30 turn out when Cc1cc(C)c(Cn2nc(-c3ccccc3)cc2C(=O)NS(=O)(=O)c2cccc(N)c2)c(C)c1 [Compound 366] was run?
The EC30 was “+++ (“+++” means <3 uM)”.

With Cc1cc(C)c(CN2Cc3ccccc3CCC2C(=O)NS(=O)(=O)c2cccc(N)n2)c(C)c1 (centres unmarked) [Compound 690, N-[(6-amino-2-pyridyl)sulfonyl]-2-[(2,4,6-trimethylphenyl)methyl]-1,3,4,5-tetrahydro-2-benzazepine-3-carboxamide] as the compound, how does the EC30 read?
Its EC30 is “++ (“++” means between 3 uM and 10 uM)”.

Which EC30 does the source give for C[C@@H](c1ccccc1)n1nc(C(C)(C)C)cc1C(=O)NS(=O)(=O)c1cccc(N)c1 [Compound 138, N-(3-aminophenyl)sulfonyl-5-tert-butyl-2-[(1S)-1-phenylethyl]pyrazole-3-carboxamide] here?
Its EC30 is “++ (“++” means between 3 uM and 10 uM)”.

With Cc1cc(C)c(Oc2nc(-c3ccc(Cl)c(OCC(C)C)c3)ccc2C(=O)NS(=O)(=O)c2ccc[nH]c2=O)c(C)c1 [Compound 136, 6-(4-chloro-3-isobutoxy-phenyl)-N-[(2-oxo-1H-pyridin-3-yl)sulfonyl]-2-(2,4,6-trimethylphenoxy)pyridine-3-carboxamide] as the compound, how does the EC30 read?
Its EC30 is “+++ (“+++” means <3 uM)”.

How did the EC30 turn out when CC(C)COc1cc(F)cc(-c2ccc(C(=O)NS(=O)(=O)c3cccc(N)n3)c(N3CCC[C@H]3C)n2)c1 [Compound 694, N-[(6-amino-2-pyridyl)sulfonyl]-6-(3-fluoro-5-isobutoxy-phenyl)-2-[(2R)-2-methylpyrrolidin-1-yl]pyridine-3-carboxamide] was run?
The EC30 was “+++ (“+++” means <3 uM)”.

With COc1ccc(-c2cc(C(=O)NS(=O)(=O)c3ccccc3)n(Cc3c(C)cccc3C)n2)cc1F [Compound 43, N-(benzenesulfonyl)-2-[(2,6-dimethylphenyl)methyl]-5-(3-fluoro-4-methoxy-phenyl)pyrazole-3-carboxamide] as the compound, how does the EC30 read?
The EC30 was “+++ (“+++” means <3 uM)”.

How did the EC30 turn out when Cc1cc(C)c(Oc2nc(N3CCCC3)ccc2C(=O)NS(=O)(=O)c2cccc(N)n2)c(C)c1 [Compound 746, N-[(6-amino-2-pyridyl)sulfonyl]-6-pyrrolidin-1-yl-2-(2,4,6-trimethylphenoxy)pyridine-3-carboxamide] was run?
Its EC30 is “+++ (“+++” means <3 uM)”.

With Cc1cc(C)c(Oc2nc(-c3cc(O)cc(F)c3)ccc2C(=O)NS(=O)(=O)c2cccc(N)n2)c(C)c1 [Compound 505, N-[(6-amino-2-pyridyl)sulfonyl]-6-(3-fluoro-5-hydroxy-phenyl)-2-(2,4,6-trimethylphenoxy)pyridine-3-carboxamide] as the compound, how does the EC30 read?
The EC30 was “++ (“++” means between 3 uM and 10 uM)”.

How did the EC30 turn out when COc1cccc(Oc2nc(C(C)(C)C)ccc2C(=O)NS(=O)(=O)c2ccccc2)c1 [Compound 101, N-(benzenesulfonyl)-6-tert-butyl-2-(3-methoxyphenoxy)pyridine-3-carboxamide] was run?
The EC30 was “+++ (“+++” means <3 uM)”.

Cc1cc(C)c(Cn2c(C(=O)NS(=O)(=O)c3ccncc3)cc3cc(Cl)ccc32)c(C)c1 [Compound 65, 5-chloro-N-(4-pyridylsulfonyl)-1-[(2,4,6-trimethylphenyl)methyl]indole-2-carboxamide] was tested. Which EC30 did it give?
Its EC30 is “++ (“++” means between 3 uM and 10 uM)”.

For CC(C)(C)c1ccc(C(=O)NS(=O)(=O)c2ccc(N)cc2)c(N2CCCCC2)n1 [Compound 753, N-(4-aminophenyl)sulfonyl-6-tert-butyl-2-(1-piperidyl)pyridine-3-carboxamide], which EC30 is on record?
Its EC30 is “++ (“++” means between 3 uM and 10 uM)”.

With Cc1cc(C)c(Oc2nc(C(C)(C)C)ccc2C(=O)NS(=O)(=O)c2ccc[nH]c2=O)c(C)c1 [Compound 51, 6-tert-butyl-N-[(2-oxo-1H-pyridin-3-yl)sulfonyl]-2-(2,4,6-trimethylphenoxy)pyridine-3-carboxamide] as the compound, how does the EC30 read?
The EC30 was “+++ (“+++” means <3 uM)”.
